Data: publication PMC4516925, “Three Peptide Modulators of the Human Voltage-Gated Sodium Channel 1.7, an Important Analgesic Target, from the Venom of an Australian Tarantula” (Toxins, 2015)
“Also recorded” adds a separate entry of the source. Where a SMILES comes first, the peptide text is derived from it. Bridges are numbered along the chain shown (N, C = ends).

How the values were obtained:
hNaV1.7 [1] = target: T1, hNaV1.7 (Homo sapiens, UniProt Q15858); assay: Inhibition of hNaV1.7 currents, two-electrode voltage clamp in Xenopus oocytes; format: cell-based; conditions: TEVC; for IC50 / Hill coefficient, inhibition of hNaV1.7: Xenopus oocytes, n = 5–7; for IC50: 50-ms step to 0 mV from −80 mV every 10 s, ND96 pH 7.4 with 0.1% BSA, 20 °C–22 °C, Hill equation, mean ± S.E.M.; for Selectivity, hNaV1.7 versus rNaV1.2 and hNaV1.5 (in words): comparison with rNaV1.2 and hNaV1.5, Xenopus oocytes; for Hill coefficient, inhibition of hNaV1.7: from concentration-effect curve
T1 construct: expressed in transfected cells; host or cells: Xenopus oocytes (cRNA injection)
Description: (§1) Plasmids containing cloned rNaV1.2, hNaV1.5 and hNaV1.7 were linearised, then capped cRNAs were synthesised using a T7 mMESSAGE-mMACHINE transcription kit (Ambion, Austin, TX, USA). Stage V-VI oocytes were obtained from anesthetised Xenopus frogs and prepared as previously described. Oocytes were injected with 20–40 ng of cRNA (Nanoject 2000; WPI, Sarasota, FL, USA) and incubated for 2–6 days at 17 °C in ND96 solution (96 mM NaCl, 2 mM KCl, 1 mM CaCl2, 2 mM MgCl2, 5 mM HEPES, pH 7.4), supplemented with 2.5 mM sodium pyruvate, 50 μg/mL gentamicin and 2.5% horse serum prior to electrophysiological recordings. All work with animals was carried out in strict accordance with the recommendations in the Australian code of practice for the care and use of animals for scientific purposes. The protocol was approved by the Anatomical Biosciences group of the Animal Ethics Committee at The University of Queensland (Approval Number QBI/059/13/ARC/NHMRC).
(§2) Two-electrode voltage clamp (TEVC) recordings were performed at room temperature (20 °C–22 °C) under voltage-clamp (Axoclamp 900A, Molecular Devices, Sunnyvale, CA, USA) using two standard glass microelectrodes of 0.5–1 MΩ resistance when filled with 3 M KCl solution. Stimulation, data acquisition, and analysis were performed using pCLAMP software (Version 10, Molecular Devices, Sunnyvale, CA, USA). Peptide stock solutions were made up to 30 μM, and serial dilutions were prepared in ND96 solution (pH 7.4) containing 0.1% bovine serum albumin (BSA). Venom peptides were applied directly to the recording chamber to prevent adsorption to plastics.
(§3) NaV channel recordings were performed on oocytes clamped at −80 mV. Data were sampled at 20 kHz and filtered at 2 kHz. Inward sodium currents were elicited by a 50-ms depolarising step to 0 mV every 10 s. Once the peak current had stabilised (typically ~3 min), serial dilutions of peptides were applied to oocytes to obtain concentration-effect curves. Data were analysed using Clampfit 10.2 and Prism 6.0 (GrahPad Software, La Jolla, CA, USA, 2013). The Hill equation was fit to the data to obtain the half-maximal inhibitory concentration (IC50) values and Hill coefficient (nH). Data are presented as mean ± S.E.M. (n = number of oocytes). I-V relationships in the absence and presence of 300 nM and 1 μM peptide were obtained on oocytes clamped at −80 mV; families of currents were evoked by applying 50-ms depolarising steps from −60 mV to +70 mV with 10-mV increments every 10 s. After acquiring the control I–V curve, the first concentration of peptide was added and the inhibitory effect was allowed to plateau (a test pulse from −80 to 0 mV every 10 s) before obtaining an I–V curve in the presence of peptide. This was repeated for the second concentration of peptide. Data were normalised to the maximal peak current and analysed using Clampfit 10.2 and Prism 6.0.

rNaV1.2 = target: T2, rNaV1.2 (Rattus norvegicus, UniProt P04775); assay: Inhibition of rNaV1.2 currents, two-electrode voltage clamp in Xenopus oocytes; format: cell-based; conditions: TEVC; for inhibition at 1 µM: 1 μM peptide, 50-ms step to 0 mV from −80 mV every 10 s
T2 construct: expressed in transfected cells; host or cells: Xenopus oocytes (cRNA injection)
T2 sequence (P04775 whole entry): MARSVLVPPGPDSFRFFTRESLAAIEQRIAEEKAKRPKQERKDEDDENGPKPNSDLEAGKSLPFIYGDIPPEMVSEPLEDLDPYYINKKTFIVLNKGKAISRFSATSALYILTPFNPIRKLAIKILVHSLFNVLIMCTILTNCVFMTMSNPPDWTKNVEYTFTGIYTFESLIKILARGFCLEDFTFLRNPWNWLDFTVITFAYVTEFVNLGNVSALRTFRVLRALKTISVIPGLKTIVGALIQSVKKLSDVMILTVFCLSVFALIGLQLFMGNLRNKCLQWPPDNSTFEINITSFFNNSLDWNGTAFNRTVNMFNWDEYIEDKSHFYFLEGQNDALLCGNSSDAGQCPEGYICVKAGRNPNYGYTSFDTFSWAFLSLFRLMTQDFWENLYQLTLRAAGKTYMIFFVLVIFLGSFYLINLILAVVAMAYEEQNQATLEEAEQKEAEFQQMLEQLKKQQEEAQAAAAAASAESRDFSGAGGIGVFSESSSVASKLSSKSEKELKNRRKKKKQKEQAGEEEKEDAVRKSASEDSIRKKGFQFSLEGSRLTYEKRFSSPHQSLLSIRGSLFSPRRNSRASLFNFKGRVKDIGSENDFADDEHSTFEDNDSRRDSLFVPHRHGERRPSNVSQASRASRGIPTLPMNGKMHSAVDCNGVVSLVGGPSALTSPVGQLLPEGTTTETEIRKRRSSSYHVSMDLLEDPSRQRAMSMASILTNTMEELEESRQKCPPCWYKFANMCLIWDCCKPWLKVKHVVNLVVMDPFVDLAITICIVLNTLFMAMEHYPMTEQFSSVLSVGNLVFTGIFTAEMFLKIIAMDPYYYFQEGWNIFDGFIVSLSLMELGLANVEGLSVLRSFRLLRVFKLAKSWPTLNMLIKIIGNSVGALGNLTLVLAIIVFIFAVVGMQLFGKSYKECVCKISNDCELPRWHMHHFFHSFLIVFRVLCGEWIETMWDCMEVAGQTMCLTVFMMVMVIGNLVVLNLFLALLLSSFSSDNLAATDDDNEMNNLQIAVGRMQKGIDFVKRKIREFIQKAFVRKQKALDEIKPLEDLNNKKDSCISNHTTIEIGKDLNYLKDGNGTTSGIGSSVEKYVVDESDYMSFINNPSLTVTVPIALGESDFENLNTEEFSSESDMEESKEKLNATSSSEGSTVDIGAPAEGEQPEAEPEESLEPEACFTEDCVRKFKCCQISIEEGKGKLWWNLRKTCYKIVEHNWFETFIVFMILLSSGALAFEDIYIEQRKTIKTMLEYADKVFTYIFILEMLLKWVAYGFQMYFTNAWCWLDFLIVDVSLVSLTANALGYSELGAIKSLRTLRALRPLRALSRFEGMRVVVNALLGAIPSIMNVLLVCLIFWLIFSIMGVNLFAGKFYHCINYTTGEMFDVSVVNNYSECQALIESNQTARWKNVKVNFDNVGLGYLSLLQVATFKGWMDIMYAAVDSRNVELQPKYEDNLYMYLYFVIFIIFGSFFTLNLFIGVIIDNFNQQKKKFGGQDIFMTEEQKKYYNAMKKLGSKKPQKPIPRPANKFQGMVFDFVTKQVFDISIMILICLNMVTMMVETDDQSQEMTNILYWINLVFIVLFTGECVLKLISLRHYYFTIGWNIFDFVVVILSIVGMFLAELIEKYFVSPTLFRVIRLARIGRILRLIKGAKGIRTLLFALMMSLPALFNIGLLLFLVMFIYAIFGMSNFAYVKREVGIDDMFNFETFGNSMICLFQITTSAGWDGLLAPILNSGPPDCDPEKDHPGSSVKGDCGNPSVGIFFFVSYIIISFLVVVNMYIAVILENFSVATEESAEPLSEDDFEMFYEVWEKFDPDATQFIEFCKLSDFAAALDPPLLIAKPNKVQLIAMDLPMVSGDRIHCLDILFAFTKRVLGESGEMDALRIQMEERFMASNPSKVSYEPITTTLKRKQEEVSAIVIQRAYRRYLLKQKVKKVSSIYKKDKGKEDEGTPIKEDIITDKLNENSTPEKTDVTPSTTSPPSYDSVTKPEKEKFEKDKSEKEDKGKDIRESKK
Description: as §1, §2
as §3, with “After acquiring the control I–V curve, the first concentration of peptide was added and the inhibitory effect was allowed to plateau (a test pulse from −80 to 0 mV every 10 s) before obtaining an I–V curve in the presence of peptide. This was repeated for the second concentration of peptide.” left out

hNaV1.5 = target: T3, hNaV1.5 (Homo sapiens, UniProt Q14524); assay: Inhibition of hNaV1.5 currents, two-electrode voltage clamp in Xenopus oocytes; format: cell-based; conditions: TEVC
T3 construct: expressed in transfected cells; host or cells: Xenopus oocytes (cRNA injection)
T3 sequence (Q14524 whole entry): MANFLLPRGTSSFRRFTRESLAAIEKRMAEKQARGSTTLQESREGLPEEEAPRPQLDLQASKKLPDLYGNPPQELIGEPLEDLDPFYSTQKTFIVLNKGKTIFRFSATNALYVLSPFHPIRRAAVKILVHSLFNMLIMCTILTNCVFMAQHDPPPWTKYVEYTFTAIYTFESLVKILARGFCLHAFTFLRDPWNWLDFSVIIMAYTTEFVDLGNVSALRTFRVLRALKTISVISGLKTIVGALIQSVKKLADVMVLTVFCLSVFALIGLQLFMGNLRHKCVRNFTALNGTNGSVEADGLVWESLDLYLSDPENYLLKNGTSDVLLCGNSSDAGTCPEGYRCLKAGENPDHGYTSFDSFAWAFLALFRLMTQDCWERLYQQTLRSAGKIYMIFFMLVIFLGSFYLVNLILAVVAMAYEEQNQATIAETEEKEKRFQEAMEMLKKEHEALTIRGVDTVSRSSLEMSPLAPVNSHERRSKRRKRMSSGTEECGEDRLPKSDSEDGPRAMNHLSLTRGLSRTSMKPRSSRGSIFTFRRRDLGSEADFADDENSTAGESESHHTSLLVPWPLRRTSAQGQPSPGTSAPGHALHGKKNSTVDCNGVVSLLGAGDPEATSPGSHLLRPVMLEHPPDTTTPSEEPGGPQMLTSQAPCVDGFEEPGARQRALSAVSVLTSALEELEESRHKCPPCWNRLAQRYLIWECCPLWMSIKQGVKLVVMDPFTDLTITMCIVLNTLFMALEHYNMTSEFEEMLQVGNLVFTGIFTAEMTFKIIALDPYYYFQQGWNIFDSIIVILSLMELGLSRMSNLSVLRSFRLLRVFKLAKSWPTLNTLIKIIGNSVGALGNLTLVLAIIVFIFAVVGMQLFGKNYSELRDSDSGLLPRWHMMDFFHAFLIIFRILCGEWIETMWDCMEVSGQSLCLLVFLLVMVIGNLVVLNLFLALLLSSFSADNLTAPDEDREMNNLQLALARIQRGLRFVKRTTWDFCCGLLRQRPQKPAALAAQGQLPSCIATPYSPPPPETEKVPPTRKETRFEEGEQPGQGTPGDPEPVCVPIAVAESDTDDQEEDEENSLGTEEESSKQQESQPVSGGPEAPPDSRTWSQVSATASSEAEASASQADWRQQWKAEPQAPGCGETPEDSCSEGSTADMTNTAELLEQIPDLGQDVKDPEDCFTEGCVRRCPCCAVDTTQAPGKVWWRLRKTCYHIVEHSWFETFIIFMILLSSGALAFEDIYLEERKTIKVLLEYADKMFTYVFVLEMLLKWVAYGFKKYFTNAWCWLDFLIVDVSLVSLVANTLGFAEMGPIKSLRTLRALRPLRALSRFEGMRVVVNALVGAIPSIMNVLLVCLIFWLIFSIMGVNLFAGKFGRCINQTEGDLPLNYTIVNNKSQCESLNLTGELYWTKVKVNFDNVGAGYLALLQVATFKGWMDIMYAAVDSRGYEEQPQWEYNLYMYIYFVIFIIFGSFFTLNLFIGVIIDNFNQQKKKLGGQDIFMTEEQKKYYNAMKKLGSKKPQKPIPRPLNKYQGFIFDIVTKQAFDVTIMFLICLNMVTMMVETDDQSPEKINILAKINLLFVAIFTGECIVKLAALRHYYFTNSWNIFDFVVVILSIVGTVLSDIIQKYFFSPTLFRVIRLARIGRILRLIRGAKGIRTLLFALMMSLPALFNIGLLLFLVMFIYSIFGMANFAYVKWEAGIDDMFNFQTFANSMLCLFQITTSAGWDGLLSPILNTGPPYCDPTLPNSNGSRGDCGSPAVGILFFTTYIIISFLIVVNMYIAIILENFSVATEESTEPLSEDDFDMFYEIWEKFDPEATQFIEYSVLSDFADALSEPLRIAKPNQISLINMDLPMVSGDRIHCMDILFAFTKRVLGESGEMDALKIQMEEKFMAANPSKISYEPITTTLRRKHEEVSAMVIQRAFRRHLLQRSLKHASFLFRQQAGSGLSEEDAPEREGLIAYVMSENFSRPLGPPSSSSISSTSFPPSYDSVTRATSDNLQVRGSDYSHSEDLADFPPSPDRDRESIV
Description: as §1, §2
NaV channel recordings were performed on oocytes clamped at −80 mV. Data were sampled at 20 kHz and filtered at 2 kHz. Inward sodium currents were elicited by a 50-ms depolarising step to 0 mV every 10 s. […] Data were analysed using Clampfit 10.2 and Prism 6.0 (GrahPad Software, La Jolla, CA, USA, 2013). […] Data were normalised to the maximal peak current and analysed using Clampfit 10.2 and Prism 6.0.

hNaV1.7 [2] = target: T1, hNaV1.7; assay: Current-voltage (I-V) relationship / V0.5 of activation of hNaV1.7; format: cell-based; conditions: 300 nM and 1 μM; n = 6
Description: as §1, with “QBI/059/13/ARC/NHMRC). […]” for “QBI/059/13/ARC/NHMRC).”
NaV channel recordings were performed on oocytes clamped at −80 mV. […] Data were analysed using Clampfit 10.2 and Prism 6.0 (GrahPad Software, La Jolla, CA, USA, 2013). […] Data were normalised to the maximal peak current and analysed using Clampfit 10.2 and Prism 6.0.

hNaV1.7 [3] = target: T1, hNaV1.7; conditions: cited from earlier work
NaV channels = conditions: cited from earlier work
Description: Approximately 12% of spider toxins are C-terminally amidated. In addition to a possible role in peptide stability, C-terminal amidation can modulate biological activity. The 35-residue spider-venom peptide huwentoxin-IV (HwTx-IV) is a member of NaSpTx Family 1 isolated from venom of the tarantula Haplopelma schmidti (formerly known as Ornithoctonus huwena). Remarkably, native HwTx-IV with C-terminal amidation inhibits hNaV1.7 with is ~50-fold higher potency than a recombinant version with a C-terminal carboxylate group. […] Thus, we investigated the effects of Phlogius peptides on the current-voltage (I-V) relationship for hNaV1.7 using step-depolarisations ranging from −60 to +70 mV from a holding potential of −80 mV.

human NaV1.5 = conditions: cited from earlier work
Description: (§4) Approximately 12% of spider toxins are C-terminally amidated. In addition to a possible role in peptide stability, C-terminal amidation can modulate biological activity. The 35-residue spider-venom peptide huwentoxin-IV (HwTx-IV) is a member of NaSpTx Family 1 isolated from venom of the tarantula Haplopelma schmidti (formerly known as Ornithoctonus huwena). Remarkably, native HwTx-IV with C-terminal amidation inhibits hNaV1.7 with is ~50-fold higher potency than a recombinant version with a C-terminal carboxylate group. Although not in the same peptide family as HwTx-IV (NaSpTx F ...

human NaV1.8 = conditions: cited from earlier work
Description: as §4

NaV1.2 [4] = conditions: cited from earlier work
NaV1.5 = conditions: cited from earlier work
NaV1.2 [5] = conditions: chimeric KV1.2/NaV1.2 channels; rat NaV1.2; cited from earlier work
[6] = test system: sodium channel domain II voltage sensor; conditions: gating modifier; cited from earlier work

Molecule	IC50 (hNaV1.7 [1])	Selectivity, hNaV1.7 versus rNaV1.2 and hNaV1.5 (in words) (hNaV1.7 [1])	Hill coefficient, inhibition of hNaV1.7 (hNaV1.7 [1])	inhibition at 1 µM (rNaV1.2)	Effect on rNaV1.2 (in words) (rNaV1.2)	Effect on hNaV1.5 (in words) (hNaV1.5)	Effect on I-V relationship of hNaV1.7 (in words) (hNaV1.7 [2])	also measured
CC(C)C[C@@H]1NC(=O)[C@H](CC(C)C)NC(=O)[C@H](CCC(=O)O)NC(=O)[C@H](CCCNC(=N)N)NC(=O)[C@@H](NC(=O)[C@H](C)N)CSSC[C@@H]2NC(=O)[C@@H]3CSSC[C@@H](C(=O)N[C@H](C(=O)N[C@@H](Cc4c[nH]c5ccccc45)C(=O)N[C@@H](CC(=O)O)C(=O)N[C@@H](Cc4c[nH]c5ccccc45)C(=O)N[C@H](C(=O)N[C@@H](Cc4ccccc4)C(N)=O)[C@@H](C)O)C(C)C)NC(=O)[C@H](Cc4c[nH]cn4)NC(=O)[C@H](Cc4ccc(O)cc4)NC(=O)[C@@H]4CCCN4C(=O)[C@H](Cc4c[nH]c5ccccc45)NC(=O)[C@H](CCCCN)NC(=O)[C@H](CCCCN)NC(=O)[C@H](CCCNC(=N)N)NC(=O)[C@H](CSSC[C@H](NC(=O)CNC(=O)CNC1=O)C(=O)N[C@@H](CO)C(=O)N[C@@H](CCCCN)C(=O)N[C@@H](CC(=O)O)C(=O)N[C@@H](CO)C(=O)N[C@@H](CC(=O)O)C(=O)N3)NC(=O)[C@H](CCC(=O)O)NC(=O)[C@H](CC(C)C)NC(=O)[C@H](Cc1c[nH]cn1)NC(=O)[C@H](C)NC2=O [Phlo1b] (H-ACRELLGGCSKDSDCCAHLECRKKWPYHCVWDWTF-NH2; disulfide 2-16, 9-21, 15-29 (inferred); N-terminus assumed)	360 nM	inhibit hNaV1.7 more potently than rNaV1.2 and hNaV1.5	1.04	37%	only minor inhibitory activity; also recorded: slightly more potent at rNaV1.2	only minor inhibitory activity; also recorded: a similar effect as Phlo1a at hNaV1.5	concentration-dependent, depolarising shifts in the I-V relationship for hNaV1.7	–
ProTx-I	–	–	–	–	–	–	–	Blockade of human NaV1.7 (in words) (hNaV1.7 [3]): potent blocker; Effect on NaV channel activation (in words) (NaV channels): inhibit NaV channels by shifting the threshold for channel activation to more positive potentials; Blockade of human NaV1.5 (in words) (human NaV1.5): potent blocker; Blockade of human NaV1.8 (in words) (human NaV1.8): potent blocker
CC[C@H](C)[C@H](NC(=O)[C@@H](NC(=O)[C@H](Cc1c[nH]c2ccccc12)NC(=O)[C@H](CC(=O)O)NC(=O)[C@H](Cc1c[nH]c2ccccc12)NC(=O)[C@@H](NC(=O)[C@@H]1CSSC[C@@H]2NC(=O)[C@H](CC(=O)O)NC(=O)[C@H](CO)NC(=O)[C@H](CC(=O)O)NC(=O)[C@H](CCCCN)NC(=O)[C@H](CO)NC(=O)[C@@H]3CSSC[C@H](NC(=O)[C@H](CCC(=O)O)NC(=O)[C@H](CC(C)C)NC(=O)[C@H](Cc4c[nH]cn4)NC(=O)[C@H](C)NC(=O)[C@H](CSSC[C@H](NC(=O)[C@H](C)N)C(=O)N[C@@H](CCCNC(=N)N)C(=O)N[C@@H](CCC(=O)O)C(=O)N[C@@H](CC(C)C)C(=O)N[C@@H](CC(C)C)C(=O)NCC(=O)NCC(=O)N3)NC2=O)C(=O)N[C@@H](CCCNC(=N)N)C(=O)N[C@@H](CCCCN)C(=O)N[C@@H](CCCCN)C(=O)N[C@@H](Cc2c[nH]c3ccccc23)C(=O)N2CCC[C@H]2C(=O)N[C@@H](Cc2ccc(O)cc2)C(=O)N[C@@H](Cc2c[nH]cn2)C(=O)N1)C(C)C)[C@@H](C)O)C(N)=O [Phlo1a] (H-ACRELLGGCSKDSDCCAHLECRKKWPYHCVWDWTI-NH2; disulfide 2-16, 9-21, 15-29 (inferred); N-terminus assumed)	459 nM	inhibited rNaV1.2 and hNaV1.5 much less potently than hNaV1.7; also recorded: inhibit hNaV1.7 more potently than rNaV1.2 and hNaV1.5; also recorded: high level of selectivity for NaV1.7 over NaV1.2 and NaV1.5	0.87	< 20%	only minor inhibitory activity	only minor inhibitory activity	concentration-dependent, depolarising shifts in the I-V relationship for hNaV1.7	inhibition at 1 µM (hNaV1.5; 1 μM peptide, 50-ms step to 0 mV from −80 mV every 10 s): < 20%
HwTx-IV	–	–	–	–	–	–	–	Fold higher potency at hNaV1.7, native amidated vs recombinant C-terminal carboxylate (hNaV1.7 [3]; native HwTx-IV (C-terminal amide) versus recombinant version with C-terminal carboxylate, no reference printed at the sentence (isolation: ref 24)): ~ 50 fold
ProTx-II: most potent blocker of hNaV1.7 within NaSpTx family 3	–	–	–	–	–	–	–	IC50 (NaV1.2 [4]): 41 nM; IC50 (NaV1.5): 79 nM; Binding to NaV1.5 receptor site 4 (in words) (NaV1.5; mutagenesis study of NaV1.5): does not bind to receptor site 4 on the domain II voltage sensor; Effect on NaV1.5 gating (in words) (NaV1.5; voltage-dependence of activation): shifts the voltage-dependence of activation of NaV1.5 to more positive potentials; Activity (channel type), NaSpTx3 alignment (NaV channels; Figure 8C annotation, no reference given): Nav; Voltage sensors bound (in words) (NaV1.2 [5]): binds to the voltage sensors in domains I, II and IV of rat NaV1.2; also recorded: binding to the voltage sensors in domains I, II (receptor site 4), and IV (receptor site 3) of NaV1.2; Mechanism of sodium conductance reduction (in words) [6]: reduces sodium conductance by trapping the domain II voltage sensor in the closed state
